Values of other authors in US20090093463A1, “NOVEL COMPOUNDS OF SUBSTITUTED AND UNSUBTITUTED ADAMANTYL AMIDES” (AGOURON PHARMACEUTICALS INC., priority 2004, published 2009).

Columns and labels:
[1] = target: T1, 11-β-hsd-1 (Homo sapiens, UniProt P28845); conditions: ingestion, normal subjects
T1 construct: host or cells: normal subjects (in vivo)

[2] = target: T1, 11-β-hsd-1; conditions: healthy human volunteers

T1 sequence (P28845 whole entry): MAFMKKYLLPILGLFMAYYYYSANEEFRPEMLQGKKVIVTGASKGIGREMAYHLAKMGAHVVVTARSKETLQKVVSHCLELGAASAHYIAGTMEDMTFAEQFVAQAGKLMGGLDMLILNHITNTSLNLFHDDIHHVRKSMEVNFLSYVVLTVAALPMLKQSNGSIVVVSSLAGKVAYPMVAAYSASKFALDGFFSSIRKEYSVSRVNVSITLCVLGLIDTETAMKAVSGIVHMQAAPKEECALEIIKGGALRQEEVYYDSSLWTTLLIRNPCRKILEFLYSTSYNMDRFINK

reduction of intraocular pressure [1]: 20% | hepatic insulin sensitivity [2]: improved
Structure (SMILES): CC1(C)[C@@H](OC(=O)CCC(=O)O)CC[C@]2(C)[C@H]3C(=O)C=C4[C@@H]5C[C@@](C)(C(=O)O)CC[C@]5(C)CC[C@@]4(C)[C@]3(C)CC[C@@H]12 [carbenoxolone]
